Test [1] deals with T1, Tec (Homo sapiens, UniProt P42680).
T1 sequence (P42680 1-631): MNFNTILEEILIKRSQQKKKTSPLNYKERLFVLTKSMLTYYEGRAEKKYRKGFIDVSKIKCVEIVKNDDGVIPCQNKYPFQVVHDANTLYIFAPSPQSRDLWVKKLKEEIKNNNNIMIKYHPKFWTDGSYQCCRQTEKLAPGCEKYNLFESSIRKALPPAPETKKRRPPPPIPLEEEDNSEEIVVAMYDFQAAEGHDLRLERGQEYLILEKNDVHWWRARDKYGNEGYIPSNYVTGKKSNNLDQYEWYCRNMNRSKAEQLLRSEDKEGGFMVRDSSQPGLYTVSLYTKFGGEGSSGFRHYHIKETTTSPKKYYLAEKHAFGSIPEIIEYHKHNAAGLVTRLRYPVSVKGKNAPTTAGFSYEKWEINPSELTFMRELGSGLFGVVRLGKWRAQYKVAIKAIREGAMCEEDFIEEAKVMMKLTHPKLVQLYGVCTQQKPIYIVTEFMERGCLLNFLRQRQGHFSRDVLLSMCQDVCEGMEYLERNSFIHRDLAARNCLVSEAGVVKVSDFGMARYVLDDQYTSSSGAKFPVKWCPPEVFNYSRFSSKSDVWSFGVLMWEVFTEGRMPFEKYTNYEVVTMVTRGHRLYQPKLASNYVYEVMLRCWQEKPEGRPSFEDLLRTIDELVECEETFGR
Nature of the test: Biochemical kinase selectivity: IC50 determination of Tec. The note with it: for IC50: TR-FRET, 280 μM ATP; for Fold of Tec/Btk: ratio of IC50 values.

Test [2] concerns the target EGFR (Homo sapiens, UniProt P00533). Nature of the test: Biochemical kinase selectivity: IC50 determination of EGFR. The note with it: for IC50: TR-FRET, 20 μM ATP; for Fold of EGFR/Btk: ratio of IC50 values. In general terms: Time-resolved FRET reads energy transfer from a long-lived donor to a nearby acceptor.
For test [3], the target named is T2, phosphorylated Btk at Tyr223 (Homo sapiens, UniProt Q06187).
T2 construct: determine the endogenous levels of phosphorylated Btk at Tyr223; endogenous in cells; host or cells: Ramos cells (CRL-1596, ATCC)
In words: Btk pY223 cellular assay (HTRF, Ramos cells). It counts as cell-based. The note with it: compound 3 hours, pervanadate or Na3VO4 stimulation, read-out: IC50 (nM) in cell Btk pY223.
Protocol: Btk pY223 cellular assay is an HTRF based assay intended to determine the endogenous levels of phosphorylated Btk at Tyr223.
Briefly, Ramos cells were serum starved in 0.5% FBS-containing RPMI1640 overnight. The cells were then incubated with interested compounds at various concentrations in a CO2 incubator for 3 hours. After the incubation, cells were stimulated with 1 mM pervanadate (PV) or Na3VO4 (OV) for 20 min. Then, the cells were collected and lysed with 1× lysis buffer at RT for 10 min (4× lysis buffer supplied in the kit). 1× antibody mix was prepared by diluting anti-Btk-d2 and anti-pBtk-K in detection buffer (supplied in the kit). […] After mixing gently and spinning briefly, the plate was sealed up and kept in dark at RT for 18 hours. […] IC50 values were calculated with GraphPad Prism software using the sigmoidal dose-response function.

Test [4] addresses T3, Btk kinase (aa2-659, Carna Biosciences) (Homo sapiens, UniProt Q06187).
T3 construct: purchased Carna Biosciences
In words: Btk kinase enzymatic assay (TR-FRET). It counts as biochemical. Particulars: for IC50: TR-FRET, 30 μM ATP, compound incubated with kinase 60 minutes.

Structures are written as SMILES.

T2 sequence (Q06187 whole entry): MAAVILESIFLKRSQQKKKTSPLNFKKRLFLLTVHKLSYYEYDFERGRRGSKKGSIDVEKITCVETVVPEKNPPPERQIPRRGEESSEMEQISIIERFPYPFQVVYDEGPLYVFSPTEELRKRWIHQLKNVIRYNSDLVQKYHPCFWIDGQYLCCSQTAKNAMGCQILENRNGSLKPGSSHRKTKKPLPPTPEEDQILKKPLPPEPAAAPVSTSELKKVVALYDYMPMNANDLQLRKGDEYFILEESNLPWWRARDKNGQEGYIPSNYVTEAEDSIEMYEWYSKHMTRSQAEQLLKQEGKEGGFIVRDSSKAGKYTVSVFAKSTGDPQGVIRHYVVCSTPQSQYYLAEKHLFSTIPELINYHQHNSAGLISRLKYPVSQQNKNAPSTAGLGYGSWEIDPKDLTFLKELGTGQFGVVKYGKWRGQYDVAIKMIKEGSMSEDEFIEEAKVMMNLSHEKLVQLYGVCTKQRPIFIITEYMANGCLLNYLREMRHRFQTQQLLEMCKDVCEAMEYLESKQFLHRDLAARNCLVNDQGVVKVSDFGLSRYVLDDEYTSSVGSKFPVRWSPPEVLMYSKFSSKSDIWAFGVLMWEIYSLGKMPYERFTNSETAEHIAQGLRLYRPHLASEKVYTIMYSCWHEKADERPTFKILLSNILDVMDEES
EGFR, sequence (P00533 25-1210): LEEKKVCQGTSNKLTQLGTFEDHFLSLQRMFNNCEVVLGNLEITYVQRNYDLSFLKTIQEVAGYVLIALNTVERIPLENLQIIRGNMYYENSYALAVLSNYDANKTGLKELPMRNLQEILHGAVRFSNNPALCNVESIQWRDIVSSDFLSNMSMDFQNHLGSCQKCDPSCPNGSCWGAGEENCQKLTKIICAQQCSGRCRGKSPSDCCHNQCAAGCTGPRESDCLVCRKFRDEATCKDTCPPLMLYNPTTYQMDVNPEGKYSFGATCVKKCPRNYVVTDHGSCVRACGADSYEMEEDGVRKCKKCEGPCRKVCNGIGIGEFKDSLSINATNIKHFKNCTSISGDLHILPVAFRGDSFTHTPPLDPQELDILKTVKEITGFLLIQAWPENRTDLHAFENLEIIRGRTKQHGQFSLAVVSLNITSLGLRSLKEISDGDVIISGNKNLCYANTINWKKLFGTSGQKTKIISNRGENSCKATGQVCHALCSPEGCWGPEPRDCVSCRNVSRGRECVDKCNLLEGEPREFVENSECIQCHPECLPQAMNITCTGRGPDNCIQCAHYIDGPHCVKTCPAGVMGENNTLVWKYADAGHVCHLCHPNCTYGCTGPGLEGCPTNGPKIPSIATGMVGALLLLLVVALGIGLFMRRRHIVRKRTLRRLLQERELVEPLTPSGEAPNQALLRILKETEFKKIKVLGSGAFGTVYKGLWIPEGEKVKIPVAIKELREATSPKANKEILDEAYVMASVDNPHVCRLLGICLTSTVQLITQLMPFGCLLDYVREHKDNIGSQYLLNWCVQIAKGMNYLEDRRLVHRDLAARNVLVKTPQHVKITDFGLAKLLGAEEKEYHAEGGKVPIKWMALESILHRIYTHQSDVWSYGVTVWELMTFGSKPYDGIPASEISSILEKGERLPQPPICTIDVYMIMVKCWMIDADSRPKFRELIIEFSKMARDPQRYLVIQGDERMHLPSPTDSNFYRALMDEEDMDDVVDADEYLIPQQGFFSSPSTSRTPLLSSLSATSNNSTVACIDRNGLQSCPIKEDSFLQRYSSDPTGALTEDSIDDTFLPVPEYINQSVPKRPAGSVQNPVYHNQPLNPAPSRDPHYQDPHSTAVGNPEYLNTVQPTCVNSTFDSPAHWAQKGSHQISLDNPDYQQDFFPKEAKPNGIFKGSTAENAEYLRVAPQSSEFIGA
T3 sequence (Q06187 2-659): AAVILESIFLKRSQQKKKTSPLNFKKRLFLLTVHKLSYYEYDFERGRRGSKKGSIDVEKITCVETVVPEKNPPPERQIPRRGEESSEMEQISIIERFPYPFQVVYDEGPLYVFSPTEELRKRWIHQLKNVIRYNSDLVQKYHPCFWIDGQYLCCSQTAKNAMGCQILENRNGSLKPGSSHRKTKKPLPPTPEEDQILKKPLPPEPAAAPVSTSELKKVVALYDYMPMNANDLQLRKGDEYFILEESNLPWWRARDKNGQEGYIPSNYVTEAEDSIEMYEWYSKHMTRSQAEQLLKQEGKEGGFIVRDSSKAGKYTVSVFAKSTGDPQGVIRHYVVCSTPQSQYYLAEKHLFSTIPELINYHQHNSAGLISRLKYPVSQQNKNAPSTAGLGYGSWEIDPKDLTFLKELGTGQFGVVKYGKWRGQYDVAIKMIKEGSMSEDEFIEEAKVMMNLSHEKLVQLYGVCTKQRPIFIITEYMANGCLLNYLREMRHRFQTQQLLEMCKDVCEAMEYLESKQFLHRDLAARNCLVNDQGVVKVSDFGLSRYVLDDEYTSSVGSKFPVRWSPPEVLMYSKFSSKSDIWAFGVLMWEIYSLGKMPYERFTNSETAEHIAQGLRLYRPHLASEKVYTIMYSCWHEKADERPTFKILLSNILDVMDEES

By IC50 is commonly meant the point on the concentration scale where inhibition reaches its midpoint. In the case of `C=CC(=O)Nc1ccccc1C1CCNc2c(C(N)=O)c(-c3cc(Cl)c(OC)c(Cl)c3)nn21` (stereo not drawn) [169^#], the half-maximal inhibitory concentration (IC50) in test [1] amounted to 37 nM; in test [2], 0.54 nM; in test [3], 28.2 nM.

For `C=CC(=O)Nc1ccccc1C1CCNc2c(C(N)=O)c(-c3cc(F)c(F)c(Cl)c3)nn21` (stereo not drawn) [Example 158, reference compound], in test [1], the half-maximal inhibitory concentration (IC50) came out at 56 nM and the “Fold of Tec/Btk” value is listed as 19 fold. Also, in test [2], the half-maximal inhibitory concentration (IC50) was found to be 0.49 nM and the “Fold of EGFR/Btk” value was 0.2 fold.

On to `C=CC(=O)N1CCC(C2CCNc3c(C(N)=O)c(-c4ccc(C)c(OC)c4)nn32)CC1` (stereo not drawn) [Example 174, reference compound], for which, in test [1], the “selectivity of Btk over Tec (in words)” value is “almost no selectivity against Tec”, the IC50 came to 64 nM and the “Fold of Tec/Btk” value is reported as 13 fold. Besides, in test [2], the IC50 was 281 nM and the “Fold of EGFR/Btk” value turned out to be 58.5 fold. Moreover, the “affinity / inhibitory activity for Btk (in words)” value (shortened to “affinity / inhibitory activity”) in test [4] is listed as “low affinity for Btk”.

As for `C=CC(=O)N1CCC(C2CCNc3c(C(N)=O)c(-c4cc(Cl)c(C)c(Cl)c4)nn32)CC1` (stereo not drawn) [Example A7, 7-(1-acryloylpiperidin-4-yl)-2-(3,5-dichloro-4-methylphenyl)-4,5,6,7-tetrahydropyrazolo[1,5-a]pyrimidine-3-carboxamide], the IC50 in test [1] was 254 nM; in test [2], 1190 nM; in test [3] it was 148 nM; in test [4], 4.1 nM. In addition, the “Fold of Tec/Btk” value in test [1] was 62 fold. The “Fold of EGFR/Btk” value in test [2] stood at 289 fold.

For the molecule `C=CC(=O)N1CCC(C2CCNc3c(C(N)=O)c(-c4cc(OC)c(I)c(OC)c4)nn32)CC1` (stereo not drawn) [Example A8, 7-(1-acryloylpiperidin-4-yl)-2-(4-iodo-3,5-dimethoxyphenyl)-4,5, tetrahydropyrazolo[1,5-a]pyrimidine-3-carboxamide], the concentration for half-maximal inhibition (IC50) was found to be 130 nM in test [1], 1380 nM in test [2], 14.8 nM in test [3] and 0.93 nM in test [4].

`C=CC(=O)N1CCC(C2CCNc3c(C(N)=O)c(-c4cc(OC)c(C)c(OCC)c4)nn32)CC1` (stereo not drawn) [Example A12, 7-(1-acryloylpiperidin-4-yl)-2-(3-ethoxy-5-methoxy-4-methylphenyl)-4,5,6,7-tetrahydropyrazolo[1,5-a]pyrimidine-3-carboxamide]: the IC50 in test [1] is 289 nM; in test [2], greater than 10000 nM; in test [3] it was 37.3 nM; in test [4] it was 4.7 nM. The “Fold of Tec/Btk” value in test [1] turned out to be 61 fold.

Take `C=CC(=O)N1CCC(C2CCNc3c(C(N)=O)c(-c4cc(Br)c(C)c(Br)c4)nn32)CC1` (stereo not drawn) [Example A16, 7-(1-acryloylpiperidin-4-yl)-2-(3,5-dibromo-4-methylphenyl)-4,5,6,7-tetrahydropyrazolo[1,5-a]pyrimidine-3-carboxamide]: the results for the IC50 in test [1], in test [2] and in test [4] were 556 nM, 2370 nM and 7.1 nM, respectively. In addition, the “Fold of Tec/Btk” value in test [1] is on record as 78 fold. Further, the “Fold of EGFR/Btk” value in test [2] is reported as 333 fold.

Consider `C=CC(=O)N1CCC(C2CCNc3c(C(N)=O)c(-c4cc(OC)c(-c5ccco5)c(OC)c4)nn32)CC1` (stereo not drawn) [Example A19, 7-(1-acryloylpiperidin-4-yl)-2-(4-(furan-2-yl)-3,5-dimethoxyphenyl)-4,5,6,7-tetrahydropyrazolo[1,5-a]pyrimidine-3-carboxamide], for which the results for the 50% inhibitory concentration (IC50) in test [1], in test [2] and in test [4] were 455 nM, greater than 10000 nM and 7.2 nM, respectively. Further, the “Fold of Tec/Btk” value in test [1] came out at 63.2 fold.

As to `C=CC(=O)N1CCC(C2CCNc3c(C(N)=O)c(-c4cc(C)c(Br)c(C)c4)nn32)CC1` (stereo not drawn) [Example A20, 7-(1-acryloylpiperidin-4-yl)-2-(4-bromo-3,5-dimethylphenyl)-4,5,6,7-tetrahydropyrazolo[1,5-a]pyrimidine-3-carboxamide], the IC50 in test [1] was 352 nM; in test [2], 496 nM; in test [3], 143 nM; in test [4], 3.3 nM. Further, in test [1], the “Fold of Tec/Btk” value turned out to be 107 fold. The “Fold of EGFR/Btk” value in test [2] was found to be 150 fold. For the same molecule, the “affinity / inhibitory activity” value in test [4] is “high affinity for Btk”.

Take `C=CC(=O)N1CCC(C2CCNc3c(C(N)=O)c(-c4cc(OC)c(C5CC5)c(OCC)c4)nn32)CC1` (stereo not drawn) [Example A33, 7-(1-acryloylpiperidin-4-yl)-2-(4-cyclopropyl-3-ethoxy-5-methoxyphenyl)-4,5,6,7-tetrahydropyrazolo[1,5-a]pyrimidine-3-carboxamide]: the IC50 amounted to 499 nM in test [1], 9390 nM in test [2], 42.9 nM in test [3] and 2.7 nM in test [4]. Further, the “Fold of Tec/Btk” value in test [1] worked out at 185 fold. In addition, the “Fold of EGFR/Btk” value in test [2] worked out at 3479 fold. Besides, in test [4], the “affinity / inhibitory activity” value is listed as “high affinity for Btk”.

Take `C=CC(=O)N1CCC(C2CCNc3c(C(N)=O)c(-c4cc(C)c(C)c(OC)c4)nn32)CC1` (stereo not drawn) [Example A34, 7-(1-acryloylpiperidin-4-yl)-2-(3-methoxy-4,5-dimethylphenyl)-4,5,6,7-tetrahydropyrazolo[1,5-a]pyrimidine-3-carboxamide]: in test [1], half-maximal inhibition (IC50) was put at 207 nM and the “Fold of Tec/Btk” value amounted to 115 fold. In test [2], the IC50 was 405 nM and the “Fold of EGFR/Btk” value came out at 225 fold. Besides, the IC50 in test [3] came to 41.8 nM. Besides, in test [4], the “affinity / inhibitory activity” value is given as “high affinity for Btk” and the 50% inhibitory concentration (IC50) was found to be 1.8 nM.

For `C=CC(=O)N1CCC(C2CCNc3c(C(N)=O)c(-c4cc(OC)c(C5CCCCC5)c(OC)c4)nn32)CC1` (stereo not drawn) [Example A39, 7-(1-acryloylpiperidin-4-yl)-2-(4-cyclohexyl-3,5-dimethoxyphenyl)-4,5,6,7-tetrahydropyrazolo[1,5-a]pyrimidine-3-carboxamide], in test [1], the IC50 amounted to 102 nM and the “Fold of Tec/Btk” value was 15 fold. Besides, in test [2], it took 6080 nM to reach half-maximal inhibition (IC50) and the “Fold of EGFR/Btk” value was 894 fold. Also, in test [4], the IC50 was determined as 6.8 nM.

As to `C=CC(=O)N1CCC(C2CCNc3c(C(N)=O)c(-c4cc(OC)c(CCc5ccccc5)c(OC)c4)nn32)CC1` (stereo not drawn) [Example A42, 7-(1-acryloylpiperidin-4-yl)-2-(3,5-dimethoxy-4-phenethylphenyl)-4,5,6,7-tetrahydropyrazolo[1,5-a]pyrimidine-3-carboxamide], in test [1], the concentration for half-maximal inhibition (IC50) amounted to 53 nM and the “Fold of Tec/Btk” value is on record as 18 fold. Also, in test [2], the IC50 stood at 2000 nM and the “Fold of EGFR/Btk” value was 668 fold. The molecule also gave a concentration for half-maximal inhibition (IC50) in test [4] of 3 nM.

For the molecule `C=CC(=O)N1CCC(C2CCNc3c(C(N)=O)c(-c4cc(OC)c(C(=C)c5ccccc5)c(OC)c4)nn32)CC1` (stereo not drawn) [Example A43, 7-(1-acryloylpiperidin-4-yl)-2-(3,5-dimethoxy-4-(1-phenylvinyl)phenyl)-4,5,6,7-tetrahydropyrazolo[1,5-a]pyrimidine-3-carboxamide], in test [1], the half-inhibitory concentration (IC50) is 39 nM and the “Fold of Tec/Btk” value amounted to 5.7 fold. Besides, in test [2], the half-maximal inhibitory concentration (IC50) is 6180 nM and the “Fold of EGFR/Btk” value worked out at 909 fold. In test [4], this molecule returned an IC50 of 6.8 nM.

As for `C=CC(=O)N1CCC(C2CCNc3c(C(N)=O)c(-c4cc(OC)c(C(C)c5ccccc5)c(OC)c4)nn32)CC1` (stereo not drawn) [Example A44, 7-(1-acryloylpiperidin-4-yl)-2-(3,5-dimethoxy-4-(1-phenylethyl)phenyl)-4,5,6,7-tetrahydropyrazolo[1,5-a]pyrimidine-3-carboxamide], the figures for the IC50 in test [1], in test [2] and in test [4] were 35 nM, 3170 nM and 4.9 nM, respectively. For the same molecule, the “Fold of Tec/Btk” value in test [1] is listed as 7.1 fold. Besides, the “Fold of EGFR/Btk” value in test [2] is 647 fold.

On to `C=CC(=O)N1CCC(C2CCNc3c(C(N)=O)c(-c4cc(OC)c(C5CC5)c(OC(C)C)c4)nn32)CC1` (stereo not drawn) [Example A45, 7-(1-acryloylpiperidin-4-yl)-2-(4-cyclopropyl-3-isopropoxy-5-methoxyphenyl)-4,5,6,7-tetrahydropyrazolo[1,5-a]pyrimidine-3-carboxamide], for which the half-inhibitory concentration (IC50) in test [1] is 362 nM; in test [2], greater than 10000 nM; in test [4] it was 4.4 nM. The “Fold of Tec/Btk” value in test [1] is recorded as 82 fold.

Turning to `C=CC(=O)N1CCC2Nc3c(C(N)=O)c(-c4cc(OC)c(C)c(OC)c4)nn3CC2C1` (stereo not drawn) [Example D2, 7-acryloyl-2-(3,5-dimethoxy-4-methylphenyl)-4,4a,5,6,7,8,8a,9-octahydropyrazolo[1,5-a]pyrido[4,3-d]pyrimidine-3-carboxamide], the 50% inhibitory concentration (IC50) in test [1] was greater than 1000 nM; in test [4], 63 nM.

Values taken from patent US20220298163A1, “BTK INHIBITORS WITH IMPROVED DUAL SELECTIVITY” (BEIGENE, LTD., priority 2017, published 2022).
